Source: patent US20260334439A1, “BCAT2 INHIBITORS” (Agios Pharmaceuticals, Inc., priority 2023, published 2026)

Molecular target: T1, BCAT2 (Homo sapiens, UniProt O15382)
T1 sequence (O15382 28-392): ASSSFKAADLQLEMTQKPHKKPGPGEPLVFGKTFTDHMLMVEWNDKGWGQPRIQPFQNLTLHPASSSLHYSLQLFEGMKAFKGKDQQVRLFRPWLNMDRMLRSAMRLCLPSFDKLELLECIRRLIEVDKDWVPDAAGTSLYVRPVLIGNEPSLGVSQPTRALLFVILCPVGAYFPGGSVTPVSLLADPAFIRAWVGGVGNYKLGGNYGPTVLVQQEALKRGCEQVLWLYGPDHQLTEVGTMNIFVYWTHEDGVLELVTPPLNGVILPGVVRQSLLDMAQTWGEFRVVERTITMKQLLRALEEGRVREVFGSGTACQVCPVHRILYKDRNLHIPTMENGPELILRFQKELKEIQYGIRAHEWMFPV
Experiment: BCAT2 in vitro enzyme inhibition assay (hBCAT2, glutamate dehydrogenase/diaphorase/resazurin coupled fluorescence read)
Format: biochemical
Conditions: hBCAT2, 1 h preincubation at 25° C., one hour reaction; average where tested multiple times
Method: • 2×Buffer: 200 mM Tris pH 8.0, 300 mM NaCl, 0.1% BSA • 1.67×hBCAT2 Enzyme Mix: 0.33 μg/mL hBCAT2, 1× Buffer • 2.5×Substrate Mix: 460 µM L-leucine, 420 µM α-KetoGlutarate, 10 U/mL glutamate dehydrogenase, 10 mM NAD, […] diaphorase, […] Resazurin
BCAT2 enzyme stock solution was diluted to prepare a 1.67×hBCAT2 Enzyme Mix. 1 μL of test compound was first added to the reaction wells followed by 30 μL of 1.67×hBCAT2 Enzyme Mix and incubated at room temperature (25° C.) for one hour. Meanwhile the Substrate Mix was prepared. The reaction was initiated by the addition of 20 μL of the 2.5×Substrate Mix, bringing the final reaction mix of all components to 1×. Reactions were quenched after one hour by the addition of 25 μL of 6% SDS and reaction progress was measured via fluorescence read (Ex 540/Em 590).
Test compounds were prepared at 50×final concentration in DMSO, 1 to 3 dilutions were made for 10 points. The compounds were added to the assay as a 1 to 50 dilution (1 μL in 50 μL) to yield a top assay final concentration of 100 μM, decreasing 3-fold for 10 points. Each compound dilution series test also included an assay max (1 μL DMSO Added in lieu of compound, Full Reaction Components Included) and Min (1 μL DMSO Added in lieu of compound, 30 μl of 1.67×hBCAT2 Enzyme Mix replated by 30 μL of 1×Buffer). All tests were performed in technical duplicate.
Where a compound was tested multiple times, the average value of the tests is reported.

Compound | IC50 [nM]
CN1C[C@@H](N2Cc3ccc(F)cc3C2=O)C[C@@H](n2c(-c3ccccc3OCCO)nc3cnc(-c4nc[nH]n4)cc32)C1 [Example 198, 6-fluoro-2-((3S,5R)-5-(2-(2-(2-hydroxyethoxy)phenyl)-6-(1H-1,2,4-triazol-3-yl)-1H-imidazo[4,5-c]pyridin-1-yl)-1-methylpiperidin-3-yl)isoindolin-1-one] | 100 to 500
N#Cc1ccccc1-c1nc2cnc(-c3nc[nH]n3)cc2n1[C@@H]1CCC[C@H](NC(=O)c2cc(F)ccn2)C1 [Example 46, N-((1S,3R)-3-(2-(2-cyanophenyl)-6-(1H-1,2,4-triazol-3-yl)-1H-imidazo[4,5-c]pyridin-1-yl)cyclohexyl)-4-fluoropicolinamide] | < 100
O=C(N[C@H]1CCC[C@@H](n2c(-c3ccccc3OCCO)nc3ccc(-c4nc[nH]n4)cc32)C1)c1cc(F)ccc1F [Example 228, 2,5-difluoro-N-((1S,3R)-3-(2-(2-(2-hydroxyethoxy)phenyl)-6-(1H-1,2,4-triazol-3-yl)-1H-benzo[d]imidazol-1-yl)cyclo-hexyl)benzamide] | < 100
CC(C)Oc1ccc(Cl)cc1C(=O)N[C@H]1CCC[C@@H](n2c(-c3ncccc3OC(F)F)nc3cnc(-c4nc[nH]n4)cc32)C1 [compound 65] | < 100
CN1C[C@H](NC(=O)c2cc(Cl)ccn2)C[C@H](n2c(-c3ccccc3OCCO)nc3ccc(-c4ncccn4)cc32)C1 [Example 234, 4-chloro-N-((3R,5S)-5-(2-(2-(2-hydroxyethoxy)phenyl)-6-(pyr-imidin-2-yl)-1H-benzo[d]imid-azol-1-yl)-1-methylpiperidin-3-yl)picolinamide] | < 100
CC(CCO)Cc1nc2cnc(-c3nc[nH]n3)cc2n1[C@@H]1CCC[C@H](NC(=O)c2cc(Cl)ccn2)C1 (stereo partly drawn) [Example 96, 4-chloro-N-((1S,3R)-3-(2-(4-hydroxy-2-methylbutyl)-6-(1H-1,2,4-triazol-3-yl)-1H-imidazo[4,5-c]pyridin-1-yl)cyclohexyl)picolinamide] | > 1000
CC(C)OCc1nc2cnc(-c3nc[nH]n3)cc2n1[C@@H]1CCC[C@H](NC(=O)c2cc(Cl)ccn2)C1 [Example 20, 4-chloro-N-((1S,3R)-3-(2-(isopropoxymethyl)-6-(1H-1,2,4-triazol-3-yl)-1H-imidazo[4,5-c]pyridin-1-yl)cyclohexyl)picolinamide] | > 1000
COc1ccc(Cl)cc1C(=O)N[C@H]1CCC[C@@H](n2c(-c3ccccc3C#N)nc3cnc(-c4nc[nH]n4)cc32)[C@@H]1O [Example 108, 5-chloro-N-((1S,2R,3R)-3-(2-(2-cyanophenyl)-6-(1H-1,2,4-triazol-3-yl)-1H-imidazo[4,5-c]pyridin-1-yl)-2-hydroxycyclohexyl)-2-methoxybenzamide] | < 100
O=C(N[C@H]1CCC[C@@H](n2c(-c3ncccc3OC(F)F)nc3cnc(-c4nc[nH]n4)cc32)C1)c1cc(Cl)ccn1 [compound 62] | < 100
CO[C@H]1C[C@@H](NC(=O)c2cc(F)ccn2)C[C@@H](n2c(-c3ccccc3F)nc3cnc(-c4nc[nH]n4)cc32)C1 [Example 115, 4-fluoro-N-((1S,3R,5S)-3-(2-(2-fluorophenyl)-6-(1H-1,2,4-triazol-3-yl)-1H-imidazo[4,5-c]pyridin-1-yl)-5-methoxycyclohexyl)picolinamide] | 100 to 500
NC1CC(N2Cc3ccc(F)cc3C2=O)CC(n2c(-c3ccccc3F)nc3cnc(-c4nc[nH]n4)cc32)C1 (stereo not drawn) [Example 196, 2-(3-amino-5-(2-(2-fluorophenyl)-6-(1H-1,2,4-triazol-3-yl)-1H-imidazo[4,5-c]pyridin-1-yl)cyclohexyl)-6-fluoroisoindolin-1-one] | < 100
COc1ccc(Cl)cc1C(=O)N[C@@H]1C[C@@H](OC)C[C@H](n2c(-c3ccccc3F)nc3cnc(-c4nc[nH]n4)cc32)C1 [Example 107, 5-chloro-N-((1S,3R,5R)-3-(2-(2-fluorophenyl)-6-(1H-1,2,4-triazol-3-yl)-1H-imidazo[4,5-c]pyridin-1-yl)-5-methoxycyclohexyl)-2-methoxybenzamide] | > 1000
O=C(N[C@H]1CCC[C@@H](n2c(-c3ccccc3OCCO)nc3ccc(-c4nc[nH]n4)cc32)C1)c1cc(Cl)ccc1F [Example 229, 5-chloro-2-fluoro-N-((1S,3R)-3-(2-(2-(2-hydroxyethoxy)phenyl)-6-(1H-1,2,4-triazol-3-yl)-1H-benzo[d]imidazol-1-yl)cyclohex-yl)benzamide] | < 100
CN1C[C@H](NC(=O)c2cc(Cl)ccn2)C[C@H](n2c(-c3ccccc3OCCO)nc3cnc(-c4ncccn4)cc32)C1 [Example 164, 4-chloro-N-((3R,5S)-5-(2-(2-(2-hydroxyethoxy)phenyl)-6-(pyrimidin-2-yl)-1H-imidazo[4,5-c]pyridin-1-yl)-1-methylpiperidin-3-yl)picolinamide] | < 100
Nc1ccc(Cl)cc1C(=O)N[C@H]1CCC[C@@H](n2c(-c3ccccc3F)nc3cnc(-c4nc[nH]n4)cc32)C1 [Example 41, 2-amino-5-chloro-N-((1S,3R)-3-(2-(2-fluorophenyl)-6-(1H-1,2,4-triazol-3-yl)-1H-imidazo[4,5-c]pyridin-1-yl)cyclohexyl)benzamide] | 100 to 500
CN1C[C@H](NC(=O)c2cc(Cl)ccn2)C[C@H](n2c(-c3ccccc3OCCO)nc3cnc(-n4nccn4)cc32)C1 [Example 157, 4-chloro-N-((3R,5S)-5-(2-(2-(2-hydroxyethoxy)phenyl)-6-(2H-1,2,3-triazol-2-yl)-1H-imidazo[4,5-c]pyridin-1-yl)-1-methylpiperidin-3-yl)picolinamide] | < 100
O=C(N[C@H]1CCC[C@@H](n2c(-c3ccccc3F)nc3cnc(-c4nc[nH]n4)cc32)C1)c1cc(Cl)cnn1 [Example 17, 5-chloro-N-((1S,3R)-3-(2-(2-fluorophenyl)-6-(1H-1,2,4-triazol-3-yl)-1H-imidazo[4,5-c]pyridin-1-yl)cyclohexyl)pyridazine-3-carboxamide] | < 100
COc1ccc(Cl)cc1C(=O)N[C@H]1C[C@@H](n2c(-c3ccccc3F)nc3cnc(-c4nc[nH]n4)cc32)CN(C)C1 [Example 135, 5-chloro-N-((3S,5R)-5-(2-(2-fluorophenyl)-6-(1H-1,2,4-triazol-3-yl)-1H-imidazo[4,5-c]pyridin-1-yl)-1-methylpiperidin-3-yl)-2-methoxybenzamide] | 500 to 1000
CC(Oc1ccccc1-c1nc2cnc(-c3nc[nH]n3)cc2n1[C@@H]1CCC[C@H](NC(=O)c2cc(Cl)ccn2)C1)C(F)(F)F (stereo partly drawn) [Example 92, N-((1S,3R)-3-(6-(1H-1,2,4-triazol-3-yl)-2-(2-((1,1,1-trifluoropropan-2-yl)oxy)phenyl)-1H-imidazo[4,5-c]pyridin-1-yl)cyclohexyl)-4-chloropicolinamide] | > 1000
CO[C@H]1C[C@H](NC(=O)c2cc(F)ccn2)C[C@H](n2c(-c3ccccc3OCCO)nc3ccc(-c4ncco4)cc32)C1 [Example 223, 4-fluoro-N-((1R,3S,5S)-3-(2-(2-(2-hydroxyethoxy)phenyl)-6-(oxazol-2-yl)-1H-benzo[d]imid-azol-1-yl)-5-methoxycyclohex-yl)picolinamide] | 100 to 500
O=C(N[C@H]1CCC[C@@H](n2c(-c3ccccc3F)nc3cnc(-c4nc[nH]n4)cc32)[C@@H]1O)c1cc(Cl)ccn1 [Example 103, 4-chloro-N-((1S,2R,3R)-3-(2-(2-fluorophenyl)-6-(1H-1,2,4-triazol-3-yl)-1H-imidazo[4,5-c]pyridin-1-yl)-2-hydroxycyclohexyl)picolinamide] | < 100
N#Cc1ccccc1-c1nc2cnc(-c3nc(C(F)(F)F)co3)cc2n1[C@@H]1CCC[C@H](NC(=O)c2cc(F)ccc2F)C1 [Example 101, N-((1S,3R)-3-(2-(2-cyanophenyl)-6-(4-(trifluoromethyl)oxazol-2-yl)-1H-imidazo[4,5-c]pyridin-1-yl)cyclohexyl)-2,5-difluorobenzamide] | < 100
NC(=O)c1ccccc1-c1nc2cnc(-c3nc[nH]n3)cc2n1[C@@H]1CCC[C@H](N2COc3ccc(Cl)cc3C2=O)C1 [Example 207, 2-(1-((1R,3S)-3-(6-chloro-4-oxo-2H-benzo[e][1,3]oxazin-3(4H)-yl)cyclohexyl)-6-(1H-1,2,4-triazol-3-yl)-1H-imidazo[4,5-c]pyridin-2-yl)benzamide] | < 100
N#Cc1ccccc1-c1nc2cnc(-c3nc(C(F)(F)F)co3)cc2n1[C@@H]1CCC[C@H](NC(=O)c2cc(F)ccn2)C1 [Example 99, N-((1S,3R)-3-(2-(2-cyanophenyl)-6-(4-(trifluoromethyl)oxazol-2-yl)-1H-imidazo[4,5-c]pyridin-1-yl)cyclohexyl)-4-fluoropicolinamide] | < 100
